From ChEMBL document CHEMBL6103613 (J Med Chem, 2025)
Values after ≈ are worked out from the molar mass of the structure shown. Active and inactive are the calls of the source. The calls are words filed in the database; no cut-off is given here.

Key:
Staphylococcus aureus [1] = experiment: Antimicrobial activity against methicillin-resistant Staphylococcus aureus clinical isolate 4 assessed as inhibition of visible bacterial growth incubated for 18 hrs by CLSI based analysis; format: functional
Escherichia coli = experiment: Antimicrobial activity against Escherichia coli assessed as inhibition of visible bacterial growth incubated for 18 hrs by CLSI based analysis; format: functional
Enterococcus gallinarum = experiment: Antimicrobial activity against Enterococcus gallinarum ATCC 49573 assessed as inhibition of visible bacterial growth incubated for 18 hrs by CLSI based analysis; format: functional
Enterococcus faecalis = experiment: Antimicrobial activity against Enterococcus faecalis ATCC 19433 assessed as inhibition of visible bacterial growth incubated for 18 hrs by CLSI based analysis; format: functional
[2] = tested on: Staphylococcus epidermidis; experiment: Antimicrobial activity against Staphylococcus epidermidis ATCC 12228 assessed as inhibition of visible bacterial growth incubated for 18 hrs by CLSI based analysis; format: functional
[3] = Therapeutic index, ratio of HC5 for hemolytic activity in mouse Red blood cell to MIC for antimicrobial activity against Staphylococcus aureus ATCC 25923 assessed as inhibition of visible bacterial growth; format: toxicity, cell-based, RBC; details: red blood cells, read-out: TI
Candida albicans = experiment: Antifungal activity against Candida albicans assessed as reduction in fungal growth incubated for 18 hrs by CLSI based analysis; format: functional
Staphylococcus aureus [4] = experiment: Antimicrobial activity against methicillin-resistant Staphylococcus aureus clinical isolate 2 assessed as inhibition of visible bacterial growth incubated for 18 hrs by CLSI based analysis; format: functional
Bacillus subtilis = experiment: Antimicrobial activity against Bacillus subtilis ATCC 23875 assessed as inhibition of visible bacterial growth incubated for 18 hrs by CLSI based analysis; format: functional
Staphylococcus aureus [5] = experiment: Antimicrobial activity against methicillin-resistant Staphylococcus aureus ATCC 43300 assessed as inhibition of visible bacterial growth incubated for 18 hrs by CLSI based analysis; format: functional
Staphylococcus aureus [6] = experiment: Antimicrobial activity against methicillin-resistant Staphylococcus aureus clinical isolate 3 assessed as inhibition of visible bacterial growth incubated for 18 hrs by CLSI based analysis; format: functional
Enterococcus faecium = experiment: Antimicrobial activity against vancomycin-resistant Enterococcus faecium assessed as inhibition of visible bacterial growth incubated for 18 hrs by CLSI based analysis; format: functional
Staphylococcus aureus [7] = experiment: Antimicrobial activity against Staphylococcus aureus ATCC 25923 assessed as inhibition of visible bacterial growth incubated for 18 hrs by CLSI based analysis; format: functional
Staphylococcus aureus [8] = experiment: Antimicrobial activity against Staphylococcus aureus assessed as inhibition of visible bacterial growth incubated for 18 hrs by CLSI based analysis; format: functional
[9] = Hemolytic activity against mouse Red blood cell incubated for 1 hr; format: toxicity, cell-based; details: erythrocyte
Staphylococcus aureus [10] = experiment: Antibacterial activity against methicillin-resistant Staphylococcus aureus infected in kunming mouse pneumonia model assessed as decrease in TNF-alpha expression in lung at 5 mg/kg, ip measured upto 8 days; format: functional, organism-based; details: time <= 8.0 day
Staphylococcus aureus [11] = experiment: Antimicrobial activity against Staphylococcus aureus assessed as reduction in bacterial growth at 2 times MIC incubated for 24 hrs by time-killing assay; format: functional, organism-based
Staphylococcus aureus [12] = experiment: Antibacterial activity against methicillin-resistant Staphylococcus aureus infected in kunming mouse pneumonia model assessed as decrease in IL-6 expression in lung at 5 mg/kg, ip measured upto 8 days; format: functional, organism-based; details: time <= 8.0 day
Staphylococcus aureus [13] = experiment: Antibacterial activity against methicillin-resistant Staphylococcus aureus infected in kunming mouse pneumonia model assessed as decrease in IL-10 expression in lung at 5 mg/kg, ip measured upto 8 days; format: functional, organism-based; details: time <= 8.0 day

| Structure (SMILES) | MIC (Staphylococcus aureus [1]) | MIC (Escherichia coli) | MIC (Enterococcus gallinarum) | MIC (Enterococcus faecalis) | MIC [2] | selectivity ratio [3] | MIC (Candida albicans) | MIC (Staphylococcus aureus [4]) | MIC (Bacillus subtilis) | MIC (Staphylococcus aureus [5]) | MIC (Staphylococcus aureus [6]) | MIC (Enterococcus faecium) | MIC (Staphylococcus aureus [7]) | MIC (Staphylococcus aureus [8]) | HC5 [9] | Activity (Staphylococcus aureus [10]) | Activity (Staphylococcus aureus [11]) | Activity (Staphylococcus aureus [12]) | Activity (Staphylococcus aureus [13]) |
| --- | --- | --- | --- | --- | --- | --- | --- | --- | --- | --- | --- | --- | --- | --- | --- | --- | --- | --- | --- |
| CC(C)[C@@H]1NC(=O)[C@@H](C(C)C)NC(=O)[C@H](C(C)C)NC(=O)[C@@H](CCCCN)NC(=O)[C@H](Cc2c(C(c3ccccc3)c3ccccc3)[nH]c3ccccc23)NC(=O)[C@@H](C(C)C)NC(=O)[C@@H]2CSC1N2 | 12.5 µg/mL (≈ 13 µM) | 3.13 µg/mL (≈ 3.25 µM) | 25 µg/mL (≈ 25.9 µM) | 50 µg/mL (≈ 51.9 µM) | 6.25 µg/mL (≈ 6.48 µM) | 5.93 | 3.13 µg/mL (≈ 3.25 µM) | 12.5 µg/mL (≈ 13 µM) | 6.25 µg/mL (≈ 6.48 µM) | 12.5 µg/mL (≈ 13 µM) | 12.5 µg/mL (≈ 13 µM) | 50 µg/mL (≈ 51.9 µM) | 12.5 µg/mL (≈ 13 µM) | 3.13 µg/mL (≈ 3.25 µM) | 74.17 µg/mL | – | – | – | – |
| CN[C@H](CC(C)C)C(=O)N[C@H]1C(=O)N[C@@H](CC(N)=O)C(=O)N[C@H]2C(=O)N[C@H]3C(=O)N[C@H](C(=O)N[C@H](C(=O)O)c4cc(O)cc(O)c4-c4cc3ccc4O)[C@H](O)c3ccc(c(Cl)c3)Oc3cc2cc(c3O[C@@H]2O[C@H](CO)[C@@H](O)[C@H](O)[C@H]2O[C@H]2C[C@](C)(N)[C@H](O)[C@H](C)O2)Oc2ccc(cc2Cl)[C@H]1O [VANCOMYCIN] | 1.56 µg/mL (≈ 1.08 µM) | – | 3.13 µg/mL (≈ 2.16 µM) | 0.39 µg/mL (≈ 0.269 µM) | 0.39 µg/mL (≈ 0.269 µM) | – | – | 3.13 µg/mL (≈ 2.16 µM) | 0.39 µg/mL (≈ 0.269 µM) | 0.78 µg/mL (≈ 0.538 µM) | 0.78 µg/mL (≈ 0.538 µM) | 25 µg/mL (≈ 17.3 µM) | 0.78 µg/mL (≈ 0.538 µM) | – | – | Active | inactive | Active | Active |
| CC(C)C[C@H]1NC(=O)[C@H](Cc2c[nH]c3ccccc23)NC(=O)[C@@H](C(C)C)NC(=O)[C@@H]2CSC(N2)[C@H](C(C)C)NC(=O)[C@@H](CCCCN)NC(=O)[C@H](C(C)C)NC1=O | > 50 µg/mL | – | > 50 µg/mL | > 50 µg/mL | > 50 µg/mL | – | – | > 50 µg/mL | > 50 µg/mL | > 50 µg/mL | > 50 µg/mL | > 50 µg/mL | > 50 µg/mL | – | – | – | – | – | – |
| CC(C)C[C@H]1NC(=O)[C@H](Cc2c(C(c3ccccc3)c3ccccc3)[nH]c3ccccc23)NC(=O)[C@@H](C(C)C)NC(=O)[C@@H]2CSC(N2)[C@H](C(C)C)NC(=O)[C@@H](CCCCN)NC(=O)[C@H](C(C)C)NC1=O | 12.5 µg/mL (≈ 12.8 µM) | 3.13 µg/mL (≈ 3.2 µM) | 25 µg/mL (≈ 25.6 µM) | 25 µg/mL (≈ 25.6 µM) | 12.5 µg/mL (≈ 12.8 µM) | 3.48 | 3.13 µg/mL (≈ 3.2 µM) | 12.5 µg/mL (≈ 12.8 µM) | 6.25 µg/mL (≈ 6.39 µM) | 12.5 µg/mL (≈ 12.8 µM) | 12.5 µg/mL (≈ 12.8 µM) | 25 µg/mL (≈ 25.6 µM) | 12.5 µg/mL (≈ 12.8 µM) | 3.13 µg/mL (≈ 3.2 µM) | 43.53 µg/mL | – | – | – | – |
| CC(C)C[C@H]1NC(=O)[C@H](Cc2c(C(c3ccccc3)c3ccccc3)[nH]c3ccccc23)NC(=O)[C@@H](C(C)C)NC(=O)[C@@H]2CSC(N2)[C@H](C(C)C)NC(=O)[C@@H](C(C)C)NC(=O)[C@H](CCCCN)NC1=O | 12.5 µg/mL (≈ 12.8 µM) | 3.13 µg/mL (≈ 3.2 µM) | 50 µg/mL (≈ 51.1 µM) | 50 µg/mL (≈ 51.1 µM) | 25 µg/mL (≈ 25.6 µM) | 2.59 | 3.13 µg/mL (≈ 3.2 µM) | 25 µg/mL (≈ 25.6 µM) | 12.5 µg/mL (≈ 12.8 µM) | 25 µg/mL (≈ 25.6 µM) | 25 µg/mL (≈ 25.6 µM) | 50 µg/mL (≈ 51.1 µM) | 25 µg/mL (≈ 25.6 µM) | 3.13 µg/mL (≈ 3.2 µM) | 64.74 µg/mL | – | – | – | – |
| CC(C)C[C@H]1NC(=O)[C@H](Cc2c(C(c3ccccc3)(c3ccccc3)c3ccccc3)[nH]c3ccccc23)NC(=O)[C@@H](CCCCN)NC(=O)[C@@H]2CSC(N2)[C@H](C(C)C)NC(=O)[C@@H](C(C)C)NC(=O)[C@H](C(C)C)NC1=O | 12.5 µg/mL (≈ 11.9 µM) | 3.13 µg/mL (≈ 2.97 µM) | 12.5 µg/mL (≈ 11.9 µM) | 12.5 µg/mL (≈ 11.9 µM) | 12.5 µg/mL (≈ 11.9 µM) | 7.44 | 3.13 µg/mL (≈ 2.97 µM) | 12.5 µg/mL (≈ 11.9 µM) | 6.25 µg/mL (≈ 5.93 µM) | 12.5 µg/mL (≈ 11.9 µM) | 25 µg/mL (≈ 23.7 µM) | 25 µg/mL (≈ 23.7 µM) | 6.25 µg/mL (≈ 5.93 µM) | 3.13 µg/mL (≈ 2.97 µM) | 46.47 µg/mL | – | – | – | – |
| C#CC[C@H]1NC(=O)[C@@H]2CSC(N2)[C@H](C(C)C)NC(=O)[C@@H](C(C)C)NC(=O)[C@H](C(C)C)NC(=O)[C@@H](CCCCN)NC(=O)[C@H](Cc2c(C(c3ccccc3)(c3ccccc3)c3ccccc3)[nH]c3ccccc23)NC1=O | 6.25 µg/mL (≈ 6.03 µM) | 3.13 µg/mL (≈ 3.02 µM) | 12.5 µg/mL (≈ 12.1 µM) | 25 µg/mL (≈ 24.1 µM) | 6.25 µg/mL (≈ 6.03 µM) | – | 3.13 µg/mL (≈ 3.02 µM) | 6.25 µg/mL (≈ 6.03 µM) | 6.25 µg/mL (≈ 6.03 µM) | 6.25 µg/mL (≈ 6.03 µM) | 12.5 µg/mL (≈ 12.1 µM) | 25 µg/mL (≈ 24.1 µM) | 6.25 µg/mL (≈ 6.03 µM) | 3.13 µg/mL (≈ 3.02 µM) | – | – | – | – | – |
